“Also recorded” adds a separate entry of the source. Read-outs that look alike come from different tables or passages of the source. Marks after values point to notes of the source that are not given here.
Legend:
NF-κB [1] = test: TNF-α-induced NF-κB-dependent luciferase expression in HEK cells; assay type: cell-based; parameters: NF-κB % inhibition: concentration or dose not given beside the values
AP-1 [2] = test: PMA-induced AP-1 luciferase expression in HEK cells; assay type: cell-based
AP-1 [3] = test: AP-1 inhibitor screen: basal AP-1-dependent luciferase expression in HEK/AP-1 cell line; assay type: cell-based; settings: for inhibition at 1 µM: AP1, determined as described in Example 398
Procedure, shortened: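 Compound effects on unstimulated reporter signal were tested: 1.0 μM compound (0.3% DMSO) for 48 hr on HEK cells bearing an AP-1 (TGACTAA ×3)-luciferase construct, seeded 24 hr earlier. Triplicate luminescence means were normalized to DMSO-only wells; dose-response experiments were repeated 2–4 times.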

NF-κB [4] = test: NF-κB inhibitor screen: basal NF-κB-dependent luciferase expression in HEK/NF-κB cell line; assay type: cell-based; settings: for inhibition of NF-κB (summary statement): summary in the disclosure; for inhibition at 1 µM: determined as described in Example 398, read-out: NFkB inhibition @ 1 uM
Procedure, shortened: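 Basal NF-κB-driven luciferase (six-copy element, stable HEK293 line) was read with Brite-Glo. Compound was added in 0.3% DMSO 24 h post-plating, initially at 1.0 μM and then across 10–3300 nM in six steps, in triplicate wells. Signals were expressed relative to DMSO or to the lowest concentration tested.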

carageenan-induced edema = test: Carrageenan-induced rat paw edema test (anti-inflammatory activity); assay type: in vivo, Sprague-Dawley rats; settings: for inhibition in vivo at 50 mg/kg: po, 3 h, carrageenan-induced rat paw edema, defined in Example 397, read-out: % Protection
Procedure, shortened: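 Edema was raised by sub-plantar injection of 1% carrageenan into the right hind paw, 1 h after dosing 18 h-fasted male/female Sprague-Dawley rats (150-250 g) with 50 mg/kg p.o. in 0.1% CMC. Swelling was measured by displacement 3 h later and expressed as % protection against saline control.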

Compound	IC50 (NF-κB [1]; 20 ng/ml TNF-α, 24 hr (FIG. 15), read-out: IC50, TNF-α induced NF-κB gene expression)	NFkB inhibition @ 1 uM (NF-κB [1]; 1 uM, luciferase in HEK/NF-κB cells, as described in Example 398)	AP-1 inhibition @ 1 uM (AP-1 [2]; 1 uM, luciferase in HEK/AP-1 cells, as described in Example 398)	basal AP-1-dependent luciferase, six-point dose response (AP-1 [3]; 10 nM-3300 nM (FIG. 14))	basal NF-κB-dependent luciferase, six-point dose response (NF-κB [4]; 10 nM-3300 nM (FIG. 12), listed as Compound 35)	inhibition of basal NF-κB-dependent luciferase expression (NF-κB [4]; 3.3 μM (FIG. 12))	inhibition of NF-κB (summary statement) (NF-κB [4])	% Protection P (carageenan-induced edema; rat paw edema, 50 mg/kg, reading 3 hours after carrageenan, [(Control−Test)/Control]×100%)	NF-κB % inhibition (NF-κB [1]; TNF-α-induced, compound added 1 h before inducer, luciferase 24 h later, normalized to DMSO vehicle)	AP-1 % inhibition (AP-1 [2]; PMA-induced, compound added 1 h before inducer, luciferase 24 h later, normalized to DMSO vehicle)	inhibition at 1 µM (AP-1 [3])	inhibition at 1 µM (NF-κB [4])	inhibition in vivo at 50 mg/kg (carageenan-induced edema; Rattus norvegicus)	inhibition in vivo at 50 mg/kg (carageenan-induced edema)
Bis-[2-(4-Chloro-phenylamino)-4-benzayl-thiazole-5-yl]-methanone [Example 134]	< 100 nM	67.87	72.77	substantial activity at submicromolar concentrations	substantial activity at submicromolar concentrations; also recorded: robust inhibition	about 50%	capable of inhibiting	75.69%	–	–	–	–	–	–
CNc1nc(C)c(-c2nc3ccccc3c(=O)n2-c2ccc(Cl)cc2)s1 [Example 244, 2-(4-Methyl-2-methylamino-thiazol-5-yl)-3-(4-chloro-phenyl)-3H-quinazolin-4-one]	–	–	–	–	–	–	–	–	0%	87** %	82%	93%	71%	–
COc1ccc(-n2c(-c3sc(Nc4ccc(Cl)cc4)nc3-c3ccccc3)nc3ccccc3c2=O)cc1 [Example 225, 2-[2-(4-Chloro-phenylamino)-4-phenyl-thiazol-5-yl]-3-(4-methoxyphenyl)-3H-quinazolin-4-one]	–	–	–	–	–	–	capable of inhibiting	–	–	–	58%	47%	–	80%
